From patent US9827210B2, “Treatment or prophylaxis of a neurological or neuropsychiatric disorders via ocular administration” (Phovitreal Pty Ltd, priority 2007, dated 2017)

Columns and labels:
[1] = test system: Sprague-Dawley rats pre-treated with dl-amphetamine; assay: dl-amphetamine-induced psychosis in rats, intravitreal injection, motor tests; type: in vivo; conditions: 2 μl of 12.5 μg/μl into vitreous humor after 5 days of 1 mg/kg dl-amphetamine i.p.; measured three hours after injection; versus 80% DMSO vehicle; FIG. 4
Procedure: Lesions to the brain dopamine systems in mammalian brain serve as models for various neuropsychiatric disorders. When drugs such as amphetamines are administered to animals for a certain period of time psychotic symptoms develop such as increased activity, agitation and decreased latency time to perform various motor tasks. In other words, opposite to those symptoms seen in Parkinson's disease, the time to perform various motor tasks decreased: they perform them quicker.
At appropriate concentrations, the addictive drug, dl-amphetamine (1 mg/kg) was injected intraperitoneally to produce psychosis and addiction in Sprague-Dawley rats. After 5 days of such treatment each animal was tested for their level of activity in a computerized activity chamber and on three motor tests. On the day after completion of the injections half the animals received a 2 μl injection of haloperidol (12.5 μg/μl) into the vitreous humor, just in front of the retina. The other half of the animals received a 2 μl injection of vehicle (80% DMSO solution) into the vitreous humor. The effects of such injections on various parameters of movement, such as the latency to ambulate and the latency to retract a front paw, were measured three hours after animals received their intravitreal injection. […]

[2] = test system: rats with experimental Parkinson's disease; assay: 6-hydroxy dopamine model of Parkinson's disease in rats, intraocular or intravitreal injection; type: in vivo; conditions: bilateral 6-hydroxy dopamine lesion, 2 μl of 10 mMol solution into vitreous humor of both eyes on days 2, 3 and 4 after surgery, versus PD+IOVeh (70% DMSO)
Description: At appropriate concentrations, the neurotoxin 6-hydroxy dopamine produces specific and permanent depletion of dopamine in the brain and more specifically of the nigro-striatal dopamine system (Ungerstedt, U. et al, Adv. Neurol., 5, 421, 1974; Willis, G. L. & Armstrong, S. A., Brain Res. Rev., 27, 177, 1998). Intracranial injections of 6-hydroxy dopamine were used to produce a model of Parkinson's disease (and schizophrenia). Bilateral lesions produced a vegetative, akinetic syndrome in which there is a lack of voluntary movement, hunched posture and body weight loss accompanied by a loss in the ability to eat and drink.
b) After preparatory surgery that permitted access to the brain, rats were induced with bilateral experimental Parkinson's disease by injection of the neurotoxin 6-hydroxy dopamine into the nigro-striatal dopamine system. On days 2, 3 and 4 after surgery a single 2 μl intraocular or intravitreal injection was made into the vitreous humor of both eyes. The solution injected was either a 10 mMol solution of ML-23 (PD+IODrug) or a 10 mMol solution of vehicle (PD+IOVeh). The vehicle used was 70% DMSO. For comparison, a control group was not made Parkinsonian but received intraocular or intravitreal injection of vehicle in the same volume as the experimental groups (C+IOVeh). […]

In the case of `O=C(CCCN1CCC(O)(c2ccc(Cl)cc2)CC1)c1ccc(F)cc1` [haloperidol], the “latency to ambulate from a prescribed area” value [1] is reported as “increased” and the “latency to retract an elevated limb” value [1] is reported as “increased”.

For `COc1ccc2[nH]cc(CCNc3ccc([N+](=O)[O-])cc3[N+](=O)[O-])c2c1` [ML-23], the horizontal movement ([2]; FIG. 1) was “better horizontal movement” and the “ability to retract/move the front limb” value ([2]; FIG. 2) was “better performance on the ability to move the front limb”.
